Patent US20230026616A1, “PYRIMIDOIMIDAZOLE COMPOUNDS USED AS DNA-PK INHIBITORS” (MEDSHINE DISCOVERY INC., priority 2019, published 2023)
Marks after values point to notes of the source that are not given here.

Key:
[1] = Pharmacokinetic evaluation in Beagle dogs; format: in vivo, Male Beagle dogs; conditions: for Tlast / AUC(0-t) / C0 / clearance / half-life / Vd / Cmax / Tmax: Beagle dog plasma; for F: Beagle dog, PO 5 mpk vs IV 1 mpk; for AUC(0-t) / C0 / clearance / half-life / Vd / Cmax / Tmax: male; for Vd: read-out: Vdss
Text: (§1) IV: intravenous injection; PO: oral; C0: instantaneous […] concentration after intravenous injection; Cmax: highest plasma concentration after administration; Tmax: time required to reach peak of drug concentration after administration; T1/2: time required for the plasma drug concentration to decrease by half, Vdss: apparent volume of distribution, refers to the proportional constant of the drug dose in vivo and the blood drug concentration when the drug reaches a dynamic equilibrium in vivo. Cl: clearance rate, refers to the […] cleared from the body per unit time; Tlast: time at the last detection point; AUC0-last: area under the drug-time curve, refers to the area covered by the plasma concentration curve and the time axis; F: a measure of the speed and degree of drug absorption into the blood circulation, which is an important indicator for evaluating the degree of drug absorption.
(§2) Test compounds were mixed with 10% dimethyl sulfoxide/50% polyethylene glycol 200/40% water, vortexed and sonicated to prepare a nearly clear solution of 1 mg/mL, then filtered through a microporous membrane for next step. Male Beagle dogs were selected and administered intravenously with the candidate compound solution at a dose of 1 mg/kg. Test compounds were mixed with 10% dimethyl sulfoxide/50% polyethylene glycol 200/40% water, vortexed and sonicated to prepare a nearly clear solution of 1 mg/mL, then filtered with a microporous membrane for next step. Male Beagle dogs were selected and orally administered with the candidate compound solution at a dose of 5 mg/kg. Whole blood was collected for a certain period of time, and plasma was prepared, then drug concentration was detected by LC-MS/MS method, and pharmacokinetic parameters were calculated by Phoenix WinNonlin software (Pharsight, USA).

Human DNA-PK = molecular target: T1, Human DNA-PK (Homo sapiens, UniProt P78527); experiment: DNA-dependent protein kinase (DNA-PK) inhibitory activity screening (Eurofins, HTRF); format: biochemical; conditions: ATP: 10 μM; read-out: DNA-PK kinase inhibition IC50
T1 construct: purchased Eurofins (Eurofins Pharma Discovery Service)
Method: Experimental Embodiment 1: DNA-Dependent Protein Kinase (DNA-PK) Inhibitory Activity Screening Experiment
This experiment was tested in the Eurofins
Human DNA-PK; Mg/ATP; GST-cMyc-p53; EDTA; Ser15 antibody; ATP: 10 μM.
Experimental Method (Eurofins Pharma Discovery Service):
DNA-PK (h) was incubated in assay buffer containing 50 nM GST-cMyc-p53 and Mg/ATP (according to the required concentration). The reaction was initiated by adding Mg/ATP mixture. After 30 minutes of incubation at room temperature, the reaction was stopped by adding a stop solution containing EDTA. Finally, detection buffer (containing labeled anti-GST monoclonal antibody and europium-labeled anti-Ser15 antibody against phosphorylated p53) was added. The plate was then read in time-resolved fluorescence mode, and the homogeneous time-resolved fluorescence (HTRF) signal was determined according to the formula HTRF=10000×(Em665 nm/Em620 nm).

[2] = Pharmacokinetic evaluation in cynomolgus monkeys; format: in vivo, Male cynomolgus monkeys
Text: as §1
as §2, with “compound was” for “compounds were”, “cynomolgus monkeys” for “Beagle dogs”

[3] = Pharmacokinetic and brain exposure evaluation in rats; format: in vivo, SD male rats; conditions: for Vd: read-out: Vdss
Text: as §1
Test compounds were mixed with 10% dimethyl sulfoxide/50% polyethylene glycol 200/40% water, vortexed and sonicated to prepare a nearly clear solution of 0.5 mg/mL (compound 5) or 1 mg/mL (compound 17), then filtered through a microporous membrane for next step. SD male rats were selected and administered intravenously with the candidate compound solution at a dose of 1 mg/kg (compound 5) or 2 mg/kg (compound 17). Test compounds were mixed with 10% dimethyl sulfoxide/50% polyethylene glycol 200/40% water, vortexed and sonicated to prepare a homogeneous suspension of 4 mg/mL (compound 5) or a nearly clear solution of 1 mg/mL (compound 17). SD male rats were selected and orally administered with the candidate compound solution at a dose of 40 mg/kg (compound 5) or 10 mg/kg (compound 17). Whole blood, cerebrospinal fluid, brain tissue were collected for a certain period of time and plasma was prepared, and the drug concentration was detected by LC-MS/MS method, and the pharmacokinetic parameters were calculated by Phoenix WinNonlin software (Pharsight, USA).

[4] = male, 1 mg/kg, cynomolgus monkey plasma, IV 1 mpk
[5] = male, 5 mg/kg, cynomolgus monkey plasma, PO 5 mpk
[6] = male, SD, 1 mg/kg, rat plasma, IV 1 mpk
[7] = male, SD, 40 mg/kg, rat, PO 40 mpk, Cerebrospinal fluid
[8] = male, SD, 40 mg/kg, rat, PO 40 mpk, Plasma
[9] = male, SD, 2 mg/kg, rat plasma, IV 2 mpk
[10] = male, SD, 10 mg/kg, rat plasma, PO 10 mpk

## Cc1cc2ncnn2cc1Nc1ncc2c(n1)n(N1CC3CCC(C1)O3)c(=O)n2C [Compound 5]
[1]; IV 1 mpk
  Tlast: 24 h
[1]; PO 5 mpk
  Tlast: 24 h
[1]
  F: 279%
[1]; 1 mg/kg, IV 1 mpk
  AUC(0-t): 4.96 µM·h
  C0: 1.82 µM
  clearance: 0.496 L/h/kg
  half-life: 4.04 h
  Vd: 1.87 L/kg
[1]; 5 mg/kg, PO 5 mpk
  AUC(0-t): 68.3 µM·h
  Cmax: 9.27 µM
  Tmax: 1.67 h
  half-life: 4.27 h
Human DNA-PK
  IC50: 1 nM
[2]; cynomolgus monkey plasma, PO 5 mpk
  Tlast: 12 h
[2]; cynomolgus monkey, PO 5 mpk vs IV 1 mpk
  F: 115%
[2]; [4]
  AUC(0-t): 2.44 µM·h
  C0: 2.29 µM
  clearance: 1.01 L/h/kg
  half-life: 3.6 h
[2]; male, 1 mg/kg, cynomolgus monkey plasma, IV 1 mpk, read-out: Vdss
  Vd: 1.52 L/kg
[2]; [5]
  AUC(0-t): 14 µM·h
  Cmax: 4.5 µM
  Tmax: 1.17 h
  half-life: 1.35 h
[3]; [6]
  AUC(0-t): 2.38 µM·h
  C0: 3.04 µM
  clearance: 1.02 L/h/kg
  half-life: 1.45 h
  Vd: 1.41 L/kg
[3]; male, SD, 40 mg/kg, rat, PO 40 mpk, Brain tissue
  Tmax: 4 h
[3]; [7]
  AUC(0-t): 7.74 µM·h
  Tmax: 2 h
[3]; male, SD, 40 mg/kg, rat, PO 40 mpk, Cerebrospinal fluid, read-out: Cmax
  Cmax: 1.26 µM
[3]; [8]
  AUC(0-t): 59.9 µM·h
  Tmax: 2 h
[3]; male, SD, 40 mg/kg, rat, PO 40 mpk, Plasma, read-out: Cmax
  Cmax: 10.2 µM
[3]; rat plasma, IV 1 mpk
  Tlast: 8 h
[3]; rat, PO 40 mpk, Brain tissue
  AUC0-last: 6369^b h*nmol/kg
  Cmax: 1019^a nmol/kg
  Tlast: 8 h
[3]; rat, PO 40 mpk, Cerebrospinal fluid
  Tlast: 8 h
[3]; rat, PO 40 mpk, Plasma
  Tlast: 8 h

## Cc1cc2nncn2cc1Nc1ncc2c(n1)n(N1CC3CCC(C1)O3)c(=O)n2C [Compound 17]
[1]; IV 1 mpk
  Tlast: 24 h
[1]; PO 5 mpk
  Tlast: 24 h
[1]
  F: 92.3%
[1]; 1 mg/kg, IV 1 mpk
  AUC(0-t): 6.82 µM·h
  C0: 1.45 µM
  clearance: 0.353 L/h/kg
  half-life: 5.04 h
  Vd: 1.58 L/kg
[1]; 5 mg/kg, PO 5 mpk
  AUC(0-t): 31.5 µM·h
  Cmax: 4.94 µM
  Tmax: 1.5 h
  half-life: 4.27 h
Human DNA-PK
  IC50: 0.5 nM
[3]; [9]
  AUC(0-t): 4.86 µM·h
  C0: 5.3 µM
  clearance: 1.01 L/h/kg
  half-life: 1.16 h
  Vd: 1.4 L/kg
[3]; [10]
  AUC(0-t): 32.5 µM·h
  Tmax: 2 h
  half-life: 2.29 h
[3]; male, SD, 10 mg/kg, rat plasma, PO 10 mpk, read-out: Cmax
  Cmax: 6.25 µM
[3]; rat plasma, IV 2 mpk
  Tlast: 8 h
[3]; rat plasma, PO 10 mpk
  Tlast: 8 h
